Three compounds from ChEMBL document CHEMBL6134888, “Challenging the "Undruggable"─Targeting STAT3 but Identifying Potent TrkA-Targeted Inhibitors” (J Med Chem, 2025) can be followed below.

One may read the IC50 as the concentration needed to halve the response being measured. Broadly, the half-life is the time needed for the level to fall by half in the phase considered. By Papp A→B is commonly meant how fast a substance crosses the layer from the apical side. The Kd is the free concentration of one partner at which half of the binding sites on the other are occupied at equilibrium, for simple one-to-one binding.

Molecules are shown by their SMILES.

In series [1] the target is T1, Tyrosine-protein kinase JAK2 (Homo sapiens, UniProt O60674). Briefly: Inhibition of JAK2 (unknown origin) by Z-LYTE Kinase assay.
The nature of series [2]: Plasma protein binding in human. Format: ADME, cell-free. To be noted: read-out: PPB (converted).
Series [3] is described as follows: Metabolic stability in human liver microsome assessed as half life measured up to 60 mins by HPLC-MS/MS analysis. Type of series: ADME. To be noted: liver microsomes.
Series [4] is described as follows: Apparent permeability of compound across apical to basolateral side in human Caco-2 cells. Format: ADME, cell-based.
The nature of series [5]: Metabolic stability in human liver microsome assessed as intrinsic clearance measured up to 60 mins by HPLC-MS/MS analysis. Format: ADME. As to conditions: liver microsomes, read-out: CLH. On the technique in general: Liver microsomes are vesicles of endoplasmic reticulum, rich in cytochrome P450 enzymes.
In series [6] the test system is LS174T. In words: Cytotoxicity against human LS174T cells assessed as cell viability at 100 uM incubated for 72 hrs by resazurin based analysis relative to control. Format: functional. As to conditions: read-out: Activity.
Series [7] has as its system MDA-MB-231. Briefly: Cytotoxicity against human MDA-MB-231 cells assessed as cell viability at 100 uM incubated for 72 hrs by resazurin based analysis relative to control. Type of series: functional. As to conditions: read-out: Activity. On the technique in general: The colour change of resazurin is a common sign of viable cells or microbes.
For series [8], the target named is BDNF/NT-3 growth factors receptor (Homo sapiens, UniProt Q16620). Briefly: Binding affinity to TRKB (unknown origin) assessed as dissociation constant by KINOMEscan assay.
The target of series [9] is T2, Proto-oncogene tyrosine-protein kinase Src (Homo sapiens, UniProt P12931). In words: Inhibition of SRC (unknown origin) by Z-LYTE Kinase assay.
For series [10], the target named is Tyrosine-protein kinase ABL1 (Homo sapiens, UniProt P00519). In words: Binding affinity to ABL1 (unknown origin) assessed as dissociation constant.
Another series has as its system KM12. In words: cells. To be noted: Homo sapiens, KM12, 72 h.
The target in series [11] is T3, High affinity nerve growth factor receptor (Homo sapiens, UniProt P04629). Briefly: Binding affinity to TRKA (unknown origin) assessed as dissociation constant by KINOMEscan assay.
Series [12] concerns the target T3, High affinity nerve growth factor receptor. In words: Binding affinity to TRKA (unknown origin) assessed as dissociation constant.
For series [13], the system named is MDA-MB-231. Briefly: Cytotoxicity against human MDA-MB-231 cells assessed as effect on cell viability incubated for 72 hrs by resazurin based analysis. As to conditions: MDA-MB-231, 72 h.
Series [14] has as its target T4, Receptor-type tyrosine-protein kinase FLT3 (Homo sapiens, UniProt P36888).
T4 sequence (P36888 whole entry): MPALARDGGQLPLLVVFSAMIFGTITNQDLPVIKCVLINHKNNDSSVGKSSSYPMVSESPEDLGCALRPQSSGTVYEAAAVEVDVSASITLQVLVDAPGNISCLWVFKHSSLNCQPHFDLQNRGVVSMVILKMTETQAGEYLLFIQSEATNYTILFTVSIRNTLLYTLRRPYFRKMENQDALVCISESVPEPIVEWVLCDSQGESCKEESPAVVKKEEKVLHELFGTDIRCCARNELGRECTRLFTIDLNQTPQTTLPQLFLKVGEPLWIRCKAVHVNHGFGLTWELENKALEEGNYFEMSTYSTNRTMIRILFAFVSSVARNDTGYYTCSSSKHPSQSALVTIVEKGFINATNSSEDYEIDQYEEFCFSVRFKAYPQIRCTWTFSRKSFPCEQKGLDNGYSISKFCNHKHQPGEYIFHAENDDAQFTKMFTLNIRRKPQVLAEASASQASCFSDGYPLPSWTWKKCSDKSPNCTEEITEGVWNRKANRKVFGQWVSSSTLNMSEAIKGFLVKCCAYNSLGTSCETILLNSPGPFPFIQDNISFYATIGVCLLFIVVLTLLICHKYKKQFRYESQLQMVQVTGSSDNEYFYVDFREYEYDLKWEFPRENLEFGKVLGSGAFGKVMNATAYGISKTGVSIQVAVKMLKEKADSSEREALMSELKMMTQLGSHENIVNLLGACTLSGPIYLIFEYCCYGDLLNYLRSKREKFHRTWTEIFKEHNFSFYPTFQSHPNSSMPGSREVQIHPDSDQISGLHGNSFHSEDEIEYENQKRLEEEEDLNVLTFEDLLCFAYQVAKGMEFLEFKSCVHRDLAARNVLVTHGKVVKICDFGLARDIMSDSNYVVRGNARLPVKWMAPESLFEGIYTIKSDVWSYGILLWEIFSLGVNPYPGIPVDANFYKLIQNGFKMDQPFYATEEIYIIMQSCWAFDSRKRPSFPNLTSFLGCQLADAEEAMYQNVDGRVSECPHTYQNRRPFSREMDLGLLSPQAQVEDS
Briefly: Inhibition of FLT3 (unknown origin).

The target of series [15] is T2, Proto-oncogene tyrosine-protein kinase Src. In words: Binding affinity to SRC (unknown origin) assessed as dissociation constant.
Series [16] addresses T5, Serine/threonine-protein kinase Nek2 (Homo sapiens, UniProt P51955).
T5 sequence (P51955 whole entry): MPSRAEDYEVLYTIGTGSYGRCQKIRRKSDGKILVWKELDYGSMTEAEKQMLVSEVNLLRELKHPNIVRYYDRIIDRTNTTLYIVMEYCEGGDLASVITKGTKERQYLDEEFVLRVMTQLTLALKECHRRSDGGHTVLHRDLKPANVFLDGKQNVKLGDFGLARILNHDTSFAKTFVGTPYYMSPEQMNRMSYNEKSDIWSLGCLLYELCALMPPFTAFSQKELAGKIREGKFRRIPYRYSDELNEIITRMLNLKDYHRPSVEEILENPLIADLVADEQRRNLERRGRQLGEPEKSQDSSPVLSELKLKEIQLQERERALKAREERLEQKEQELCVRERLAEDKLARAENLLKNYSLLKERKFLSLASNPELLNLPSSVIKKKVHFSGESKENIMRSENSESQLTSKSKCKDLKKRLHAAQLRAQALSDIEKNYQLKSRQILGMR
Briefly: Inhibition of NEK2 (unknown origin).

For series [17], the target named is MAP kinase-activated protein kinase 2 (Homo sapiens, UniProt P49137). In words: Inhibition of MK2 (unknown origin).
Series [18] relates to LS174T. Briefly: Cytotoxicity against human LS174T cells assessed as effect on cell viability incubated for 72 hrs by resazurin based analysis.
Series [19] addresses T1, Tyrosine-protein kinase JAK2. In words: Binding affinity to JAK2 (unknown origin) assessed as dissociation constant.

T1 sequence (O60674 whole entry): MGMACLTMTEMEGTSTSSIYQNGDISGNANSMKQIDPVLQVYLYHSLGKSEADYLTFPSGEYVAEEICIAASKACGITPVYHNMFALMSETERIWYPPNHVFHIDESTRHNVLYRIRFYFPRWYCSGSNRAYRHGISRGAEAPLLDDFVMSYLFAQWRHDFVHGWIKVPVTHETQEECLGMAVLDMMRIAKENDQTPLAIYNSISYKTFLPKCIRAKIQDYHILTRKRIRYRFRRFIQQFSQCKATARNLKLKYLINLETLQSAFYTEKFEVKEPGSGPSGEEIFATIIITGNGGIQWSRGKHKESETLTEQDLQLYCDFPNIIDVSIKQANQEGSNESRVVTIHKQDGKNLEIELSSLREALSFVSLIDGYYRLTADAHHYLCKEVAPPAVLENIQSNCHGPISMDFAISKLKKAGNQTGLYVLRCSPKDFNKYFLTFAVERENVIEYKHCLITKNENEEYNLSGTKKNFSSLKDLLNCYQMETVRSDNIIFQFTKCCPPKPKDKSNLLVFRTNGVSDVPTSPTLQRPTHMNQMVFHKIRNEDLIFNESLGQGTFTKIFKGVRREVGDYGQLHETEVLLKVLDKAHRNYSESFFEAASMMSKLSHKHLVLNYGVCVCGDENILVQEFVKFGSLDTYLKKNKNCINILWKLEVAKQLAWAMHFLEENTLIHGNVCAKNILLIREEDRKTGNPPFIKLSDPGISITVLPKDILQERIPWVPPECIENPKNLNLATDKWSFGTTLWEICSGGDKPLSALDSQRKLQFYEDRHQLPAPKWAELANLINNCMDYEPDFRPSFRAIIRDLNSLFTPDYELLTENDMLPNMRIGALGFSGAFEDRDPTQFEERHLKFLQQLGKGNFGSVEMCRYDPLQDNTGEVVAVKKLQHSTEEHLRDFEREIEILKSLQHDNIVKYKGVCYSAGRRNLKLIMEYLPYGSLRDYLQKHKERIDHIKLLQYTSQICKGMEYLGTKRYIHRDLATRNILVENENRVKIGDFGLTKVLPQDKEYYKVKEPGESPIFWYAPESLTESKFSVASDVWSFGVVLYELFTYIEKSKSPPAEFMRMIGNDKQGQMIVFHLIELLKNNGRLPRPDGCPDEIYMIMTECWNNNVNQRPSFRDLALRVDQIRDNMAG
T2 sequence (P12931 2-536 limits assumed): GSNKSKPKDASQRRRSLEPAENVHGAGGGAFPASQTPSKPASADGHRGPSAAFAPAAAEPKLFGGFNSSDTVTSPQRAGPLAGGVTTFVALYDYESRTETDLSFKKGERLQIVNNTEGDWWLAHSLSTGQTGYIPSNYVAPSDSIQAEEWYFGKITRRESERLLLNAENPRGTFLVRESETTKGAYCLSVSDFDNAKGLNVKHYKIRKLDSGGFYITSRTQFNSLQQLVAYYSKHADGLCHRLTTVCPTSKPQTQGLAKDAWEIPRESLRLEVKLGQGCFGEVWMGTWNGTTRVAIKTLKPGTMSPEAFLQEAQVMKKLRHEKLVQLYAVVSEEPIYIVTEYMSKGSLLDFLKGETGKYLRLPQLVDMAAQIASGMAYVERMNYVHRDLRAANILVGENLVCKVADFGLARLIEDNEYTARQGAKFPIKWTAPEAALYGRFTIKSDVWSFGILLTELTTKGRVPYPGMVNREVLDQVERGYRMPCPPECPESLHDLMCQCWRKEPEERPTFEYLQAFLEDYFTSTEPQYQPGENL
Sequence of BDNF/NT-3 growth factors receptor (Q16620 whole entry): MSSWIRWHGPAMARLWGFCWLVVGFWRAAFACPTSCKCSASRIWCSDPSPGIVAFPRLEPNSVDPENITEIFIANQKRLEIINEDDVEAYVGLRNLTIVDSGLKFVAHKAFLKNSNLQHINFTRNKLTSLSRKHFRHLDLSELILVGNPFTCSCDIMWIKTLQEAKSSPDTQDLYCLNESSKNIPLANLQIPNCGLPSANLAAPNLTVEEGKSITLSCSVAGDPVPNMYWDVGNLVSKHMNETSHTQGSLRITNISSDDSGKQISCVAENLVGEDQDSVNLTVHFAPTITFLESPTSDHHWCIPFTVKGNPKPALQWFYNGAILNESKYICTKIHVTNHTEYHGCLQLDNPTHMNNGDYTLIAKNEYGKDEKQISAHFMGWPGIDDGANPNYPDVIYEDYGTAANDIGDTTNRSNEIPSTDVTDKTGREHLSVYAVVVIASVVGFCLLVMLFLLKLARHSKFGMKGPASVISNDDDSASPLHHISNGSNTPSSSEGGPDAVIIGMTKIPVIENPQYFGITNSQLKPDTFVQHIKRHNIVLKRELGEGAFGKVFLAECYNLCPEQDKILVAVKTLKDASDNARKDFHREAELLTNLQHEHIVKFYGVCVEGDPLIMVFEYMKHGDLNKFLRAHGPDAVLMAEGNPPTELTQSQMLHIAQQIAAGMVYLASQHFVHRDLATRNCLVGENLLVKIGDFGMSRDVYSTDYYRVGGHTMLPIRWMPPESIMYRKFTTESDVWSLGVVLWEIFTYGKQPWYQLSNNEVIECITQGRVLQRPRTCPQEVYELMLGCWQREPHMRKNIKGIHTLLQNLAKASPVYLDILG
T3 sequence (P04629 whole entry): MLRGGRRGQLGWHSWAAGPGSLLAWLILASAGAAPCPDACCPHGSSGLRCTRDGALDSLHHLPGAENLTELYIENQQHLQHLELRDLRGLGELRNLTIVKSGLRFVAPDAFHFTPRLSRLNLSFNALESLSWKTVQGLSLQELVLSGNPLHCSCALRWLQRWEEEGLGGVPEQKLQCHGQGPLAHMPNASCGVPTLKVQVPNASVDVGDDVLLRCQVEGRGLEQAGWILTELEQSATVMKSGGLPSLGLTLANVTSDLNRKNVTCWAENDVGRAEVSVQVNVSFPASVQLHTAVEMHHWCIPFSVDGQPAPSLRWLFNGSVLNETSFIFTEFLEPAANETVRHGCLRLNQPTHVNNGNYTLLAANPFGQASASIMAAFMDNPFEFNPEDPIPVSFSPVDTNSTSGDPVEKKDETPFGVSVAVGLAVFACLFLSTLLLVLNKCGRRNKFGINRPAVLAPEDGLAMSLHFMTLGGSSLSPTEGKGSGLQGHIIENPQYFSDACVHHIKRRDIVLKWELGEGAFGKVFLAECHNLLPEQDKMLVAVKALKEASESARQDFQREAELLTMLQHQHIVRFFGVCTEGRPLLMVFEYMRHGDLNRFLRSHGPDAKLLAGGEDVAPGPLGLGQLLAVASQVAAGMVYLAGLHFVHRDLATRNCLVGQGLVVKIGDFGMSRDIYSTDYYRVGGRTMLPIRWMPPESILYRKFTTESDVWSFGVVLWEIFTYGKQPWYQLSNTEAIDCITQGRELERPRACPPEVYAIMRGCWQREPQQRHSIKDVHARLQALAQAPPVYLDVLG
Sequence of Tyrosine-protein kinase ABL1 (P00519 whole entry): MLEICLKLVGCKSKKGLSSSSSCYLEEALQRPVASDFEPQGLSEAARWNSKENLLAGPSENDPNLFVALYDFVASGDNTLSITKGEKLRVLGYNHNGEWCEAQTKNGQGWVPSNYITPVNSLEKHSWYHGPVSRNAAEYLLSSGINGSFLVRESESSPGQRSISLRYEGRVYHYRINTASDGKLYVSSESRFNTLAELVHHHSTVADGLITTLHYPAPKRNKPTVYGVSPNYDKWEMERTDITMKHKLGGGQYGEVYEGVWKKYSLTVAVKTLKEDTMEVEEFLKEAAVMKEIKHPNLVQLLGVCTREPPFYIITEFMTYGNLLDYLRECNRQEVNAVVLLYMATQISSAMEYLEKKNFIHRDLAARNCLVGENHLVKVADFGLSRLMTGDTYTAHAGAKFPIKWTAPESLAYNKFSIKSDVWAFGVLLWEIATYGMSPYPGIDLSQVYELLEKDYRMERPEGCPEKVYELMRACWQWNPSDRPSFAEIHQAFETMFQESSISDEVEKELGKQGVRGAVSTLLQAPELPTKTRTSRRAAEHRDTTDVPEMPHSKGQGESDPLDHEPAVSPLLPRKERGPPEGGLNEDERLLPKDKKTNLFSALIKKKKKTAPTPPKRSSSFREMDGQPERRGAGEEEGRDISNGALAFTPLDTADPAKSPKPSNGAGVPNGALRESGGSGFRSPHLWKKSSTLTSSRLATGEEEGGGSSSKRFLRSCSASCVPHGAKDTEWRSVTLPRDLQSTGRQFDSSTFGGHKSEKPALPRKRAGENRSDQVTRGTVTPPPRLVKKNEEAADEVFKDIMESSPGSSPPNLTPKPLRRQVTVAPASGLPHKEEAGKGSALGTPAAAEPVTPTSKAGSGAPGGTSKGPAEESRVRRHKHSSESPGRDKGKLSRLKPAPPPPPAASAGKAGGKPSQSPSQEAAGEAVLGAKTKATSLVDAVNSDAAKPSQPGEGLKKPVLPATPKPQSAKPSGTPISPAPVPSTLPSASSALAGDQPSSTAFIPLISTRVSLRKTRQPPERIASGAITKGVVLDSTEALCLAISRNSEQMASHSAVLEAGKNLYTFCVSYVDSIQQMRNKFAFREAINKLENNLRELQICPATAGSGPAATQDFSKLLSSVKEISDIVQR
Sequence of MAP kinase-activated protein kinase 2 (P49137 whole entry): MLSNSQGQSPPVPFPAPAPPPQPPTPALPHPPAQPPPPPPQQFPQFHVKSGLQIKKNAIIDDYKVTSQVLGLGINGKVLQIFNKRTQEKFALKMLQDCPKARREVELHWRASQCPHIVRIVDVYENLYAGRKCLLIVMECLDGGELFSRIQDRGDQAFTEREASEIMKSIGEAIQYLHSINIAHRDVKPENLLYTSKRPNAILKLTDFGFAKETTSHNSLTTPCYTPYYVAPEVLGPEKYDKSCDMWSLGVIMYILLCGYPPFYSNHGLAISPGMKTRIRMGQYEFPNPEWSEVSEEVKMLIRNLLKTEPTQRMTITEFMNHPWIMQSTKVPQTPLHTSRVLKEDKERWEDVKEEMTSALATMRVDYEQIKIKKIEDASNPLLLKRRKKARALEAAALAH
Description for KM12: Cytotoxicity against human KM12 cells assessed as inhibition of cell viability incubated for 72 hrs by resazurin based analysis

Consider `CC(=O)Nc1cccc(-c2cnc(N)c(N[C@H](C)c3ccccc3)n2)c1`, for which, in [1], the IC50 is 177 nM. Also, in series [2], the fraction unbound is 0.043. For the same compound, the half-life in [3] was determined as 1.75 h. Further, the Papp A→B in [4] was 8 ×10⁻⁶ cm/s. In addition, the microsomal CLint in series [5] was 66.2 µL/min/mg.

As for `CC(Nc1nc(-c2cccnc2)cnc1N)c1ccccc1` (racemic), the values for the viability at 100 µM with LS174T [6] and in the series on MDA-MB-231 [7] were 83% and 43%, respectively. The results for the IC50 in [1] and in series [9] were 663 nM and 4520 nM, respectively. Besides, the Kd in [8] came out at 180 nM.

Take `CC(Nc1nc(-c2cccc(N(C)C)c2)cnc1N)c1ccccc1` (racemic): the Kd in series [10] came out at 5300 nM; in series [11] it was 52 nM; in [12], 36 nM; in series [15] it was 640 nM; in series [8], 150 nM; in [19], 1100 nM. For the same compound, the IC50 in the series with KM12 was below 300 nM; in the series with MDA-MB-231 [13], above 10000 nM; in series [14] it was 70 nM; in series [16], 870 nM; in series [17], 750 nM; in the series on LS174T [18] it was above 10000 nM. The fraction unbound in series [2] is 0.004. Moreover, in series [3], the half-life is 0.653 h. Also, in series [5], the microsomal CLint was 177 µL/min/mg.
